What all share (assay): NCI anticancer screen, dose series, 48 h
Assay [1] relates to 786-0.
Assay [2] deals with OVCAR-5.
The subject of assay [3] is SR.
Assay [4] concerns UACC-257.
Assay [5] relates to NCI-H23.
Assay [6] deals with IGROV-1.
Assay [7] relates to NCI-H226.
Assay [8] deals with U-251.
In assay [9] the test system is SN12C.
Assay [10] relates to CAKI-1.
The test system of assay [11] is MCF7.
The subject of assay [12] is RPMI-8226.
Assay [13] has as its system HCC 2998.
The test system of assay [14] is M14.
Assay [15] relates to UO-31.
Assay [16] relates to OVCAR-8.
The test system of assay [17] is OVCAR-4.
Assay [18] relates to MDA-MB-435.
The test system of assay [19] is MDA-N.
The subject of assay [20] is SF-295.

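Five compound concentrations were applied to cells in 96-well plates for 48 hours; endpoints were derived by simple linear interpolation of the resulting dose-response curve. GI50 is the concentration that inhibits growth by half.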 The source made the active and inactive calls. No stated cut-off is given here; in the data, active = GI50 up to about 1.1 µM and inactive = higher.

Eleven compounds from ChEMBL document CHEMBL1201862, “PubChem BioAssay data set” (2004) can be followed below.

As for `O=C(CC(C(=O)c1cccs1)c1ccsc1)c1ccc(Cl)s1` (stereo unspecified), the GI50 in [1] is > 100 µM (inactive); in assay [2], 31.4 µM (inactive); in assay [3] it was 39.2 µM (inactive); in assay [4] it was 67.9 µM (inactive); in [5] it was > 100 µM (inactive); in [6] it was > 100 µM (inactive). Moreover, the GI50 in assay [7] was > 100 µM (inactive); in [8], > 100 µM (inactive); in assay [9] it was > 100 µM (inactive); in assay [10], > 100 µM (inactive); in assay [11], 97.1 µM (inactive); in assay [12] it was 55.1 µM (inactive). For the same compound, the GI50 in assay [13] is > 100 µM (inactive); in assay [14], 85.5 µM (inactive); in assay [15], 36.6 µM (inactive); in [16] it was > 100 µM (inactive); in assay [17], > 100 µM (inactive); in assay [18] it was 85.7 µM (inactive).

On to `CCCCCCCCCCCCCCCCCCOP1(=O)OCCO1`, for which the GI50 was > 100 µM (inactive) in assay [19]; > 100 µM (inactive) in assay [1]; 74 µM (inactive) in assay [2]; > 100 µM (inactive) in assay [4]; > 100 µM (inactive) in assay [5]; > 100 µM (inactive) in [6]. In addition, the GI50 in assay [7] was > 100 µM (inactive); in assay [8] it was 27.9 µM (inactive); in [9] it was > 100 µM (inactive); in assay [10], > 100 µM (inactive); in assay [11], > 100 µM (inactive); in assay [12] it was 37.4 µM (inactive). Further, the GI50 was 47.2 µM (inactive) in assay [13]; > 100 µM (inactive) in assay [14]; > 100 µM (inactive) in assay [15]; 28.5 µM (inactive) in [20]; > 100 µM (inactive) in assay [16]; > 100 µM (inactive) in assay [17]. Moreover, the GI50 in assay [18] is > 100 µM (inactive).

In the case of `C=C1c2ccccc2Oc2nc3nc(N)c(C#N)c(N)c3c(N)c21`, the GI50 was 38.4 µM (inactive) in assay [19]; 27 µM (inactive) in assay [1]; 85.5 µM (inactive) in assay [2]; 53.1 µM (inactive) in assay [4]; 18 µM (inactive) in [5]; 2.39 µM (inactive) in [6]. Besides, the GI50 in assay [7] was 20.1 µM (inactive); in assay [8], 30.2 µM (inactive); in assay [9] it was 37.6 µM (inactive); in assay [10] it was 30.8 µM (inactive); in assay [11], 14.6 µM (inactive); in assay [12] it was 24.4 µM (inactive). Further, the GI50 in assay [13] was 19.5 µM (inactive); in [14], 29.6 µM (inactive); in assay [15], 25.2 µM (inactive); in [20] it was 30.3 µM (inactive); in assay [16], 16.4 µM (inactive); in assay [17] it was 42.6 µM (inactive). The GI50 in assay [18] is 30.5 µM (inactive).

Consider `CC1(C)C2CCC(=O)C1CC2` (stereo unspecified), for which the GI50 in assay [19], in assay [1], in assay [2], in assay [4], in [5] and in assay [6] was > 100 µM (inactive) in each case. The GI50 in [7], in [8], in [9], in assay [10], in assay [11] and in assay [12] was > 100 µM (inactive) in each case. Besides, the GI50 in assay [13], in assay [14], in [15], in assay [20], in [16] and in assay [18] was > 100 µM (inactive) in each case.

As for `Clc1n[nH]c2ccccc12`, the GI50 in assay [19], in assay [1], in assay [2], in [4], in [5] and in [6] was > 100 µM (inactive) throughout. The GI50 is 71 µM (inactive) in assay [7]; > 100 µM (inactive) in assay [8]; > 100 µM (inactive) in assay [9]; > 100 µM (inactive) in assay [11]; > 100 µM (inactive) in assay [12]; > 100 µM (inactive) in [13]. The GI50 in [14], in [15], in assay [20], in [16], in assay [17] and in [18] was > 100 µM (inactive) in each case.

Regarding `COCP1(=S)OC(C)CCN1C(C)C` (stereo unspecified), the GI50 in assay [1], in assay [2], in assay [3], in [4], in assay [5] and in assay [6] was > 100 µM (inactive) each time. The GI50 in assay [7], in assay [8], in assay [10], in assay [11], in [12] and in assay [13] was > 100 µM (inactive) in each case. The GI50 in assay [14], in [15], in [20], in assay [16], in assay [17] and in assay [18] was > 100 µM (inactive) throughout.

Turning to `CNC(=S)N/N=C(\C)c1ccc(OC)cc1O`, the GI50 in [19] was > 100 µM (inactive); in assay [1] it was > 100 µM (inactive); in assay [2], > 100 µM (inactive); in [3], 29.3 µM (inactive); in assay [4] it was > 100 µM (inactive); in [5] it was > 100 µM (inactive). Also, the GI50 in [6] is 22.5 µM (inactive); in assay [7], 73.8 µM (inactive); in assay [8], > 73.5 µM (inactive); in [9] it was > 91.4 µM (inactive); in assay [10], > 100 µM (inactive); in assay [12], > 32 µM (inactive). Moreover, the GI50 in assay [13] was > 100 µM (inactive); in [14], > 100 µM (inactive); in assay [15], > 100 µM (inactive); in [20], > 100 µM (inactive); in assay [16] it was > 100 µM (inactive); in assay [17], 28.1 µM (inactive). For the same compound, the GI50 in assay [18] was > 100 µM (inactive).

As for `COc1ccc(-c2c(/C=N/OCC(=O)O)c3sc4ccccc4n3c2/C=N/OCC(=O)O)cc1`, the GI50 in assay [19], in assay [1], in assay [2], in assay [4], in assay [5] and in [6] was > 50 µM (inactive) throughout. For the same compound, the GI50 in assay [8], in assay [9], in assay [10], in assay [11], in [13] and in assay [14] was > 50 µM (inactive) each time. For the same compound, the GI50 is 11.9 µM (inactive) in [15]; > 50 µM (inactive) in assay [20]; > 50 µM (inactive) in [16]; > 50 µM (inactive) in [17]; > 50 µM (inactive) in assay [18].

As for `CN(CCNC(=O)c1cn(C)c2c1ccc1ccccc12)CCNC(=O)c1cn(C)c2c1ccc1ccccc12`, the GI50 is 2.22 µM (inactive) in assay [19]; 2.04 µM (inactive) in assay [1]; 1.69 µM (inactive) in [2]; 2.12 µM (inactive) in assay [4]; 3.14 µM (inactive) in assay [5]; 1.62 µM (inactive) in [6]. Moreover, the GI50 is 5.55 µM (inactive) in assay [7]; 2.04 µM (inactive) in [8]; 2.64 µM (inactive) in assay [9]; 2.47 µM (inactive) in assay [10]; 1.51 µM (inactive) in assay [11]; 2.59 µM (inactive) in [12]. In addition, the GI50 is 0.71 µM (active) in assay [13]; 1.95 µM (inactive) in assay [14]; 1.91 µM (inactive) in [15]; 3.05 µM (inactive) in [20]; 27.9 µM (inactive) in assay [16]; 5.62 µM (inactive) in assay [17]. Besides, the GI50 in assay [18] is 2.2 µM (inactive).

In the case of `CCOP(=O)(/C=C\n1cc(C)c(=O)[nH]c1=O)OCC`, the GI50 in [19], in assay [1], in [2], in [4], in assay [5] and in assay [6] was > 100 µM (inactive) each time. Besides, the GI50 in assay [7], in assay [8], in [9], in [10], in assay [11] and in assay [12] was > 100 µM (inactive) in each case. Besides, the GI50 in assay [14], in assay [20], in assay [16], in assay [17] and in [18] was > 100 µM (inactive) in each case.

As for `C=C1CCC[C@@H](C)C(O)[C@@H]2OC(=O)C(=C)[C@@H]2C[C@@H](OC(C)=O)[C@@]2(C)CC[C@@H]1O2` (stereo partly specified), the GI50 was 8.95 µM (inactive) in [1]; 7.87 µM (inactive) in assay [2]; 1.75 µM (inactive) in assay [3]; 8.18 µM (inactive) in assay [4]; 8.09 µM (inactive) in assay [5]; 8.15 µM (inactive) in assay [6]. Further, the GI50 in assay [7] was 8.49 µM (inactive); in assay [8], 9.57 µM (inactive); in [9] it was 8.51 µM (inactive); in [10] it was 6.89 µM (inactive); in [11], 5.55 µM (inactive); in assay [12], 8.85 µM (inactive). Further, the GI50 in assay [13] was 7.89 µM (inactive); in assay [14] it was 6.97 µM (inactive); in [15] it was 8.09 µM (inactive); in [20] it was 11.1 µM (inactive); in [16], 7.19 µM (inactive); in assay [17], 13.7 µM (inactive). The GI50 in [18] was 7.71 µM (inactive).
